Patent US20030134859A1 (SANKYO COMPANY, LIMITED, priority 2000, published 2003)
Where a name gives a salt, the structure may show the parent alone.

Legend:
Rat white adipocytes = assay: Inhibition of the differentiation of adipocytes (Oil Red O); format: cell-based; settings: 100 nM test compound, 5 days, Oil Red O ABS550, control = 100%, blank = 0%, Table 3; for activity at 0.1 µM: Rattus norvegicus, Adipocyte, 120 h, read-out: Rate of Differentiation (%)
Outline: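 Rat white preadipocytes, 5,000 cells/well, given differentiation medium with compound at 100 nM final (0.1% DMSO) for 5 days at 37 °C. Lipid stained with Oil Red O, eluted in DMSO, read at 550 nm; differentiation % relative to DMSO control (100%) and blank (0%).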

TNF-α production = assay: Inhibitory activity against cytokine (TNF-α) production in LPS-stimulated RAW264.7 cells; format: cell-based, mouse; settings: Mus musculus, RAW264.7, 15 h, 1 μM test compound, LPS 10 ng/mL
Outline: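 Mouse RAW264.7 macrophages (5,000 cells/well) stimulated with 10 ng/mL LPS (final) and treated with test compound at 1 μM final for 15 h at 37 °C. Supernatant mouse TNF-α measured by ELISA; % inhibition = 100−(A−B)/(C−B)×100, using unstimulated and LPS-only controls.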

CCCCCCN(CC)c1ccc(-c2ccc(NC(=O)c3cc([N+](=O)[O-])ccc3Cl)cc2)cc1 [Example 197, N-[4-[4-(N-Ethyl-N-hexylamino)phenyl]phenyl]-(2-chloro-5-nitrophenyl)carboxamide]
activity at 0.1 µM (Rat white adipocytes): 45.7% | inhibition at 1 µM (TNF-α production): 21.6%

CCCCCCCCNc1ccc(-c2ccc(NC(=O)c3cc([N+](=O)[O-])ccc3Cl)cc2)cc1 [Example 219, N-[4-[4-(N-Octylamino)phenyl]phenyl]-(2-chloro-5-nitrophenyl)carboxamide]
activity at 0.1 µM (Rat white adipocytes): 36.6% | inhibition at 1 µM (TNF-α production): 21.7%

CCCCCCCCN(CCCCCC)c1ccc(-c2ccc(NC(=O)c3cc([N+](=O)[O-])ccc3Cl)cc2)cc1 [Example 220, N-[4-[4-(N-Hexyl-N-octylamino)phenyl]phenyl]-(2-chloro-5-nitrophenyl)carboxamide mono-hydrochloride]
activity at 0.1 µM (Rat white adipocytes): 38.4% | inhibition at 1 µM (TNF-α production): 16.3%

CCCCCCCCN(CCCC)c1ccc(-c2ccc(NC(=O)c3cc([N+](=O)[O-])ccc3Cl)cc2)cc1.Cl [Example 223, N-[4-[4-(N-Butyl-N-octylamino)phenyl]phenyl]-(2-chloro-5-nitrophenyl)carboxamide mono-hydrochloride]
Rate of Differentiation (%) (Rat white adipocytes): 35.0% | inhibition at 1 µM (TNF-α production): 28.2%

CCCCCCCCN(CCC)c1ccc(-c2ccc(NC(=O)c3cc([N+](=O)[O-])ccc3Cl)cc2)cc1 [Example 224, N-[4-[4-(N-Octyl-N-propylamino)phenyl]phenyl]-(2-chloro-5-nitrophenyl)carboxamide]
activity at 0.1 µM (Rat white adipocytes): 40.9% | inhibition at 1 µM (TNF-α production): 22.4%

CC(C)(C)OC(=O)Nc1cccc(-c2csc(NC(=O)c3cc([N+](=O)[O-])ccc3Cl)n2)c1 [Example 234, N-[4-(3-tert-Butoxycarbonylaminophenyl)thiazol-2-yl]-(2-chloro-5-nitrophenyl)carboxamide]
activity at 0.1 µM (Rat white adipocytes): 60.5% | inhibition at 1 µM (TNF-α production): 32.5%

CS(=O)(=O)N(c1ccc(-c2ccc(NC(=O)c3cc([N+](=O)[O-])ccc3Cl)cc2)cc1)S(C)(=O)=O [Example 235, N-[4-[4-(N,N-Dimethanesulfonylamino)phenyl]phenyl]-(2-chloro-5-nitrophenyl)carboxamide]
activity at 0.1 µM (Rat white adipocytes): 3.6% | inhibition at 1 µM (TNF-α production): 40.2%

O=C(Nc1ccc(CCNC(=S)Nc2cccnc2)cc1)c1cc([N+](=O)[O-])ccc1Cl [Example 273, N-[4-[2-(Pyridin-3-yl)aminothiocarbonylaminoethyl]phenyl]-(2-chloro-5-nitrophenyl)carboxamide]
activity at 0.1 µM (Rat white adipocytes): 47.9% | inhibition at 1 µM (TNF-α production): 19.9%
